From PubChem BioAssay (NCI)
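1) Cells in 96-well plates. 2) Compound, 48 h, 5 concentrations. 3) Linear interpolation between surrounding doses. 4) Unreached endpoint = highest concentration. GI50 marks 50% less growth. TGI: concentration producing complete growth inhibition.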

Experiments:
Experiment in all cases: NCI tumour cell line growth inhibition, 48 h
EKVX NSCLC = system: EKVX NSCLC
SF-295 CNS = system: SF-295 CNS
OVCAR-5 ovarian = system: OVCAR-5 ovarian
HCC-2998 colon = system: HCC-2998 colon
MALME-3M melanoma = system: MALME-3M melanoma
MOLT-4 leukemia = system: MOLT-4 leukemia
HCT-15 colon = system: HCT-15 colon
NCI-H23 lung = system: NCI-H23 lung
UACC-257 melanoma = system: UACC-257 melanoma
SK-OV-3 ovarian = system: SK-OV-3 ovarian
U251 CNS = system: U251 CNS
CAKI-1 renal = system: CAKI-1 renal
K-562 leukemia = system: K-562 leukemia
KM12 colon = system: KM12 colon
RXF 393 renal = system: RXF 393 renal
OVCAR-8 ovarian = system: OVCAR-8 ovarian
SR leukemia = system: SR leukemia
NCI-H460 lung = system: NCI-H460 lung
ACHN renal = system: ACHN renal
IGROV1 ovarian = system: IGROV1 ovarian
OVCAR-3 ovarian = system: OVCAR-3 ovarian
PC-3 prostate = system: PC-3 prostate
SF-268 CNS = system: SF-268 CNS
SW-620 colon = system: SW-620 colon
COLO 205 colon = system: COLO 205 colon
MCF7 breast = system: MCF7 breast
786-0 renal = system: 786-0 renal
CCRF-CEM leukemia = system: CCRF-CEM leukemia
A549 NSCLC = system: A549 NSCLC
M14 melanoma = system: M14 melanoma
DU-145 prostate = system: DU-145 prostate
SK-MEL-5 melanoma = system: SK-MEL-5 melanoma
MDA-MB-231 breast = system: MDA-MB-231 breast
SF-539 CNS = system: SF-539 CNS
UO-31 renal = system: UO-31 renal
HCT-116 colon = system: HCT-116 colon
HL-60(TB) leukemia = system: HL-60(TB) leukemia
HOP-62 NSCLC = system: HOP-62 NSCLC
MDA-MB-435 = system: MDA-MB-435
HOP-92 NSCLC = system: HOP-92 NSCLC
NCI-H226 lung = system: NCI-H226 lung
LOX IMVI melanoma = system: LOX IMVI melanoma
OVCAR-4 ovarian = system: OVCAR-4 ovarian
SK-MEL-28 melanoma = system: SK-MEL-28 melanoma
NCI/ADR-RES ovarian = system: NCI/ADR-RES ovarian
SNB-19 CNS = system: SNB-19 CNS
UACC-62 melanoma = system: UACC-62 melanoma
A498 renal = system: A498 renal
SNB-75 CNS = system: SNB-75 CNS
HS 578T breast = system: HS 578T breast
RPMI-8226 leukemia = system: RPMI-8226 leukemia

COc1cc(/C=C/[N+](=O)[O-])c([N+](=O)[O-])cc1OC
GI50 (EKVX NSCLC): 8.98 µM | TGI (EKVX NSCLC): 22.6 µM | GI50 (SF-295 CNS): 6.72 µM | TGI (SF-295 CNS): 22.1 µM | GI50 (OVCAR-5 ovarian): 1.98 µM | TGI (OVCAR-5 ovarian): 3.98 µM | GI50 (HCC-2998 colon): 1.73 µM | TGI (HCC-2998 colon): 3.22 µM | GI50 (MALME-3M melanoma): 1.71 µM | TGI (MALME-3M melanoma): 3.38 µM | GI50 (MOLT-4 leukemia): 2.21 µM | TGI (MOLT-4 leukemia): 9.11 µM | GI50 (HCT-15 colon): 1.33 µM | TGI (HCT-15 colon): 4.49 µM | GI50 (NCI-H23 lung): 2.12 µM | TGI (NCI-H23 lung): 4.94 µM | GI50 (UACC-257 melanoma): 2.91 µM | TGI (UACC-257 melanoma): 11.9 µM | GI50 (SK-OV-3 ovarian): 12.8 µM | TGI (SK-OV-3 ovarian): 25.4 µM | GI50 (U251 CNS): 1.92 µM | TGI (U251 CNS): 5.35 µM | GI50 (CAKI-1 renal): 1.7 µM | TGI (CAKI-1 renal): 7.17 µM | GI50 (K-562 leukemia): 1.64 µM | TGI (K-562 leukemia): > 100 µM | GI50 (KM12 colon): 1.93 µM | TGI (KM12 colon): 3.92 µM | GI50 (RXF 393 renal): 1.38 µM | TGI (RXF 393 renal): 2.67 µM | GI50 (OVCAR-8 ovarian): 2.5 µM | TGI (OVCAR-8 ovarian): 9.46 µM | GI50 (SR leukemia): 1.6 µM | TGI (SR leukemia): 8.24 µM | GI50 (NCI-H460 lung): 2.33 µM | TGI (NCI-H460 lung): 5.67 µM | GI50 (ACHN renal): 1.56 µM | TGI (ACHN renal): 2.9 µM | GI50 (IGROV1 ovarian): 2.55 µM | TGI (IGROV1 ovarian): 11.9 µM | GI50 (OVCAR-3 ovarian): 1.3 µM | TGI (OVCAR-3 ovarian): 2.57 µM | GI50 (PC-3 prostate): 2.3 µM | TGI (PC-3 prostate): 5.7 µM | GI50 (SF-268 CNS): 2.71 µM | TGI (SF-268 CNS): 11.3 µM | GI50 (SW-620 colon): 0.785 µM | TGI (SW-620 colon): 2.26 µM | GI50 (COLO 205 colon): 1.16 µM | TGI (COLO 205 colon): 2.43 µM | GI50 (MCF7 breast): 1.12 µM | TGI (MCF7 breast): 2.73 µM | GI50 (786-0 renal): 1.61 µM | TGI (786-0 renal): 2.95 µM | GI50 (CCRF-CEM leukemia): 2.13 µM | TGI (CCRF-CEM leukemia): 6.07 µM | GI50 (A549 NSCLC): 3.38 µM | TGI (A549 NSCLC): 10.3 µM | GI50 (M14 melanoma): 1.6 µM | TGI (M14 melanoma): 2.98 µM | GI50 (DU-145 prostate): 1.58 µM | TGI (DU-145 prostate): 2.93 µM | GI50 (SK-MEL-5 melanoma): 3.39 µM | TGI (SK-MEL-5 melanoma): 12.3 µM | GI50 (MDA-MB-231 breast): 1.7 µM | TGI (MDA-MB-231 breast): 3.46 µM | GI50 (SF-539 CNS): 3.27 µM | TGI (SF-539 CNS): 84.7 µM | GI50 (UO-31 renal): 1.36 µM | TGI (UO-31 renal): 2.81 µM | GI50 (HCT-116 colon): 0.977 µM | TGI (HCT-116 colon): 2.14 µM | GI50 (HL-60(TB) leukemia): 1.32 µM | TGI (HL-60(TB) leukemia): 5.71 µM | GI50 (HOP-62 NSCLC): 2.91 µM | TGI (HOP-62 NSCLC): 8.74 µM | GI50 (MDA-MB-435): 2.17 µM | TGI (MDA-MB-435): 7.51 µM | GI50 (HOP-92 NSCLC): 2.05 µM | TGI (HOP-92 NSCLC): 4.27 µM | GI50 (NCI-H226 lung): 2.63 µM | TGI (NCI-H226 lung): 7.68 µM | GI50 (LOX IMVI melanoma): 1.68 µM | TGI (LOX IMVI melanoma): 3.05 µM | GI50 (OVCAR-4 ovarian): 1.57 µM | TGI (OVCAR-4 ovarian): 2.93 µM | GI50 (SK-MEL-28 melanoma): 2.06 µM | TGI (SK-MEL-28 melanoma): 4.72 µM | GI50 (NCI/ADR-RES ovarian): 2.85 µM | TGI (NCI/ADR-RES ovarian): 10.1 µM | GI50 (SNB-19 CNS): 6 µM | TGI (SNB-19 CNS): 19.8 µM | GI50 (UACC-62 melanoma): 2.34 µM | TGI (UACC-62 melanoma): 7.14 µM | GI50 (A498 renal): 3.03 µM | TGI (A498 renal): 11.9 µM | GI50 (SNB-75 CNS): 2.25 µM | TGI (SNB-75 CNS): 7.56 µM | GI50 (HS 578T breast): 1.88 µM | TGI (HS 578T breast): 7.45 µM | GI50 (RPMI-8226 leukemia): 2.53 µM | TGI (RPMI-8226 leukemia): 5.74 µM
